In PubChem BioAssay AID2060905 (Molecular Pharmacology Branch, DTP, NCI, 2025):
Several values for one entry are separate records, joined by “and”; a condition that tells them apart may be missing. Equal entries are not always repeated.

Tested on: 282377-053-R-J1-PDC complex spheroid viability
Assay: Anticancer human tumor 282377-053-R-J1-PDC patient-derived colon adenocarcinoma cell line growth inhibition [RAS]
Settings: for viability, T/C: stronger effect = lower value
From the text: RAS pathway inhibitors in Combinations in Complex Spheroids
A high-throughput screen of multi-cell type tumor spheroids was designed to identify active combinations of RAS pathway inhibitors and targeted small molecules. Complex spheroids include a stromal component modeled by human endothelial cells (HUVEC) and fibroblasts modeled by human mesenchymal stem cells (MSCs). The concentration ranges selected for each drug and investigational agent were based upon clinically achievable concentrations if the clinical Cmax of the agent was known.
Compounds. The drugs and investigational agents: abemaciclib (NSC768073), cobimetinib (NSC768068), divarasib (GDC6063, NSC841802), docetaxel (NSC628503), GDC-1971 (RLY-1971, NSC841576), gemcitabine (NSC613327), inavolisib (NSC800729), ipatasertib (NSC767898), KB-0742 (NSC834161), MRTX-1133 (NSC836407), osimertinib (NSC779217), RMC-4630 (NSC839698), RMC-6236 (NSC851965), RMC-6291 (NSC852671), Ro-3306 (NSC812927), sapanisertib (NSC764658), SN-38 (NSC673596), staurosporine (NSC755774), SY5609 (NSC837396), and tovorafenib (DAY101, NSC766906), were obtained from the National Cancer Institute (NCI) Developmental Therapeutics Program Chemical Repository. The FDA-approved anticancer drug set is available from the NCI Developmental Therapeutics Program. […] The stock solutions were prepared in dimethyl sulfoxide (DMSO, Sigma-Aldrich, St. Louis, MO, cat. D2650) at 800-fold the tested concentration and stored at -70 degrees C prior to their use. All drugs and investigational agents were tested over a range starting from a high concentration at or near the clinical Cmax and decreasing in half-log increments. If the clinical Cmax for an agent had not been determined, the highest concentration tested was 10 microM.
Cell Culture. All cells were maintained in an incubator at 37 degrees C and 5% CO2 with 95% humidity. The PDC lines were cultured according to standard operating procedures established by the NCI PDMR. All PDCs were thawed and cultured in Matrigel-coated flasks prepared with a working solution of 1X Ham's F-12 nutrient mix, without supplementation (Invitrogen, Waltham, MA, cat. 11765054), 100 U/mL penicillin-streptomycin (Invitrogen, cat. 15140122), and 2.5% Matrigel (Corning Inc., Corning, NY, cat. 354248) for the first three passages. The 362531-283-R-J2-PDC and 782815-120-R-J1-PDC lines were cultured in 6C/Colon 1B media, which includes advanced DMEM/F-12 (Thermo Fisher Scientific, cat. 12634028), 10 mM HEPES (Thermo Fisher Scientific, cat. 15630080), 1X GlutaMAX supplement (Thermo Fisher Scientific, cat. 35050061), 0.1 mg/mL primocin (InvivoGen, San Diego, CA, cat. ant-pm-2), 10% defined fetal bovine serum, heat inactivated (HyClone Laboratories Inc., Logan, UT, cat. SH30070.03HI), 50% L-WRN conditioned media (ATCC, cat. CRL-3276), 1.25 mM N-Acetyl-L-cysteine (Sigma-Aldrich, cat. A9165), 10 mM nicotinamide (Sigma-Aldrich, cat. N0636), 1X B-27 supplement (Thermo Fisher Scientific, cat. 17504044), 1X N-2 supplement (Thermo Fisher Scientific, cat. 17502048), 50 ng/mL human EGF (Thermo Fisher Scientific, cat. PHG0311), and 10 microM Y-27632 dihydrochloride (Tocris Bioscience, cat. 1254). The K12877-001-R-J1-PDC line was cultured in 6I media, which includes all 6C/Colon 1B media plus 10 ng/mL human FGF-10 (PeproTech, cat. 100-26), 1 ng/mL human FGF-2 (PeproTech, cat. 100-18B), 1 µM prostaglandin E2 (Tocris Bioscience, cat. 2296), […] hydrocortisone (Sigma-Aldrich, cat. H4001), and […] bovine insulin (Sigma-Aldrich, cat. I6634). The K86415-001-R-J1-PDC line was cultured in 6D media, which includes all 6C/Colon 1B media components minus the L-WRN conditioned media. The 485176-168-R4-J1-PDC was cultured in PANC media, which includes all 6C/Colon 1B media plus 100 ng/mL human FGF-10 (PeproTech, cat. 100-26), 500 nM SB-431542 (Selleckchem, cat. S1067), and 10 nM gastrin (Tocris Bioscience, cat. 3006). […]

[1] = compound alone, run of 06/10/2024
[2] = compound alone, run of 05/20/2024
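Also: spheroids exposed to agents for seven days before readout.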
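For viability, T/C in this document: luminescence viability as percent of DMSO vehicle control wells.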

Compound: C#Cc1c(F)ccc2cc(O)cc(-c3ncc4c(N5CC6CCC(C5)N6)nc(OCC56CCCN5CC(F)C6)nc4c3F)c12 (stereo not given)
- viability, T/C (compound 0.1 µM): 104% [middle of 8 runs]
- viability, T/C (compound 0.316 µM): 102% [middle of 8 runs]
- viability, T/C (compound 3.16 µM): 111% [middle of 8 runs]
- viability, T/C (compound 10 µM): 104% [middle of 8 runs]
- IC50 [1]: > 10000 nM

Compound: C=CC(=O)N1CCN(c2nc(OCC3CCCN3C)nc3c(F)c(-c4nc(N)cc(C)c4C(F)(F)F)c(Cl)cc23)C(C)C1 (stereo not given)
- viability, T/C (compound 0.0316 µM): 105% [middle of 12 runs]
- viability, T/C (compound 0.316 µM): 100% [middle of 12 runs]
- IC50 [1]: > 1000 nM
- IC50 (curve of compound): > 1000 nM

Compound: C=CC(=O)Nc1cc(Nc2nccc(-c3cn(C)c4ccccc34)n2)c(OC)cc1N(C)CCN(C)C
- viability, T/C (compound 0.01 µM): 98.4% [middle of 4 runs]
- viability, T/C (compound 0.0316 µM): 91.6% [middle of 4 runs]
- viability, T/C (compound 1 µM): 99.8% [middle of 4 runs]
- IC50 (curve of compound): > 1000 nM

Compound: CC(=O)OC12COC1CC(O)C1(C)C(=O)C(O)C3=C(C)C(OC(=O)C(O)C(NC(=O)OC(C)(C)C)c4ccccc4)CC(O)(C(OC(=O)c4ccccc4)C21)C3(C)C (stereo not given)
- viability, T/C (compound 0.1 µM): 33.6% [middle of 4 runs]
- viability, T/C (compound 0.316 µM): 37.9% [middle of 4 runs]
- IC50 (curve of compound): < 31.6 nM

Compound: CC(C)NCC(C(=O)N1CCN(c2ncnc3c2C(C)CC3O)CC1)c1ccc(Cl)cc1 (stereo not given)
- viability, T/C (compound 0.0316 µM): 95.3% [middle of 4 runs]
- viability, T/C (compound 1 µM): 94.8% [middle of 4 runs]
- viability, T/C (compound 3.16 µM): 90.4% [middle of 4 runs]
- viability, T/C (compound 10 µM): 80.6% [middle of 4 runs]
- IC50 (curve of compound): > 10000 nM

Compound: CC(C)n1nc(-c2ccc3oc(N)nc3c2)c2c(N)ncnc21
- viability, T/C (compound 0.000316 µM): 91.6% [middle of 4 runs]
- viability, T/C (compound 0.001 µM): 112% and 102% (2×) and 89.9%
- viability, T/C (compound 0.00316 µM): 90.7% [middle of 4 runs]
- viability, T/C (compound 0.01 µM): 87.2% [middle of 4 runs]
- viability, T/C (compound 0.0316 µM): 74.9% [middle of 4 runs]
- viability, T/C (compound 0.1 µM): 51.8% [middle of 4 runs]
- IC50 (curve of compound): > 100 nM

Compound: CC(Nc1ccc2c(c1)OCCn1cc(N3C(=O)OCC3C(F)F)nc1-2)C(N)=O (stereo not given)
- viability, T/C (compound 0.0316 µM): 94% [middle of 4 runs]
- viability, T/C (compound 0.316 µM): 85.7% [middle of 4 runs]
- viability, T/C (compound 1 µM): 87.3% [middle of 4 runs]
- viability, T/C (compound 3.16 µM): 93.8% [middle of 4 runs]
- viability, T/C (compound 10 µM): 84.6% [middle of 4 runs]
- IC50 (curve of compound): > 10000 nM

Compound: CC1(C)CCC(Nc2ncc(C(F)(F)F)c(-c3c[nH]c4c(P(C)(C)=O)c(C#N)ccc34)n2)CN1 (stereo not given)
- viability, T/C (compound 0.003 µM): 102% [middle of 4 runs]
- viability, T/C (compound 0.0949 µM): 74.2% [middle of 4 runs]
- viability, T/C (compound 0.3 µM): 75.7% [middle of 4 runs]
- IC50 (curve of compound): > 300 nM

Compound: CC1(O)CCCC1n1c(=O)c(C(F)F)cc2cnc(NC3CCN(S(C)(=O)=O)CC3)nc21 (stereo not given)
- viability, T/C (compound 0.1 µM): 128% [middle of 4 runs]
- viability, T/C (compound 1 µM): 112% (2×) and 190% and 160%
- viability, T/C (compound 10 µM): 5.45% [middle of 4 runs]
- IC50 (curve of compound): 6.64 µM [middle of 4 runs]

Compound: CCC(CC)c1cc(NC2CCC(N)C2)n2nccc2n1 (stereo not given)
- viability, T/C (compound 1 µM): 112% [middle of 4 runs]
- viability, T/C (compound 3.16 µM): 10.4% [middle of 4 runs]
- viability, T/C (compound 10 µM): 3% [middle of 4 runs]
- IC50 (curve of compound): 1.96 µM [middle of 4 runs]

Compound: CCN1CCN(Cc2ccc(Nc3ncc(F)c(-c4cc(F)c5nc(C)n(C(C)C)c5c4)n3)nc2)CC1
- viability, T/C (compound 0.00316 µM): 105% [middle of 4 runs]
- viability, T/C (compound 0.01 µM): 107% [middle of 4 runs]
- viability, T/C (compound 0.316 µM): 121% and 132% (2×) and 151%
- viability, T/C (compound 1 µM): 178% [middle of 4 runs]
- IC50 (curve of compound): > 1000 nM

Compound: CCc1c2c(nc3ccc(O)cc13)-c1cc3c(c(=O)n1C2)COC(=O)[C@]3(O)CC
- viability, T/C (compound 0.000949 µM): 106% [middle of 4 runs]
- viability, T/C (compound 0.003 µM): 107% (2×) and 119% and 122%
- IC50 (curve of compound): > 300 nM

Compound: CCn1c(-c2cc(N3CCN(C)CC3)cnc2C(C)OC)c2c3cc(ccc31)-c1csc(n1)CC(NC(=O)C1CC1C)C(=O)N1CCCC(N1)C(=O)OCC(C)(C)C2 (stereo not given)
- viability, T/C (compound 0.003 µM): 95.7% [middle of 8 runs]
- viability, T/C (compound 0.00949 µM): 98.4% [middle of 8 runs]
- viability, T/C (compound 0.0949 µM): 105% [middle of 8 runs]
- IC50 [2]: > 300 nM

Compound: CCn1c(-c2cccnc2C(C)OC)c2c3cc(ccc31)N1CCOC(CC(NC(=O)C(C(C)C)N(C)C(=O)C3(F)CCN(C(=O)C#CC(C)(C)N(C)C)CC3)C(=O)N3CCCC(N3)C(=O)OCC(C)(C)C2)C1 (stereo not given)
- viability, T/C (compound 0.000949 µM): 98.8% [middle of 8 runs]
- viability, T/C (compound 0.00949 µM): 104% [middle of 8 runs]
- viability, T/C (compound 0.03 µM): 102% [middle of 8 runs]
- viability, T/C (compound 0.0949 µM): 102% [middle of 8 runs]
- viability, T/C (compound 0.3 µM): 102% [middle of 8 runs]
- IC50 [2]: > 300 nM

Compound: C[C@@H](NC(=O)c1ncnc(N)c1Cl)c1ncc(C(=O)Nc2cc(C(F)(F)F)c(Cl)cn2)s1
- viability, T/C (compound 0.0316 µM): 92.9% [middle of 4 runs]
- viability, T/C (compound 0.1 µM): 94.9% [middle of 4 runs]
- viability, T/C (compound 0.316 µM): 92.8% [middle of 4 runs]
- viability, T/C (compound 1 µM): 94.9% [middle of 4 runs]
- viability, T/C (compound 3.16 µM): 81.1% [middle of 4 runs]
- viability, T/C (compound 10 µM): 72.1% [middle of 4 runs]
- IC50 (curve of compound): > 10000 nM

Compound: Cc1nc(N2CCC3(CC2)COC(C)C3N)c(CO)nc1Sc1ccnc(N)c1Cl (stereo not given)
- viability, T/C (compound 0.0316 µM): 93.8% and 100% (2×) and 88.5%
- viability, T/C (compound 0.316 µM): 94.9% [middle of 4 runs]
- viability, T/C (compound 1 µM): 102% [middle of 4 runs]
- IC50 (curve of compound): > 10000 nM

Compound: NC1c2ccccc2OC12CCN(c1cnc3c(N4CCCc5ncccc54)n[nH]c3n1)CC2 (stereo not given)
- viability, T/C (compound 0.0316 µM): 98.1% [middle of 4 runs]
- viability, T/C (compound 0.1 µM): 98.2% [middle of 4 runs]
- viability, T/C (compound 0.316 µM): 101% [middle of 4 runs]
- viability, T/C (compound 1 µM): 109% (2×) and 96.3% and 103%
- viability, T/C (compound 3.16 µM): 97.5% [middle of 4 runs]
- viability, T/C (compound 10 µM): 89.8% [middle of 4 runs]
- IC50 (curve of compound): > 10000 nM

Compound: Nc1ccn(C2OC(CO)C(O)C2(F)F)c(=O)n1 (stereo not given)
- viability, T/C (compound 0.00316 µM): 94.8% [middle of 4 runs]
- viability, T/C (compound 0.01 µM): 101% [middle of 4 runs]
- IC50 (curve of compound): > 1000 nM and 221 nM and 274 nM

Compound: O=C(c1ccc(F)c(F)c1Nc1ccc(I)cc1F)N1CC(O)([C@@H]2CCCCN2)C1
- viability, T/C (compound 0.00316 µM): 75.2% [middle of 4 runs]
- viability, T/C (compound 0.1 µM): 53.5% [middle of 4 runs]
- viability, T/C (compound 0.316 µM): 28.1% [middle of 4 runs]
- viability, T/C (compound 1 µM): 20.8% [middle of 4 runs]
- IC50 (curve of compound): 79.8 nM [middle of 4 runs]
